Data: ChEMBL document CHEMBL3600285, “Inhibitory Effects of Highly Oxygenated Lanostane Derivatives from the Fungus Ganoderma lucidum on P-Glycoprotein and α-Glucosidase” (J Nat Prod, 2015)

Assays:
Alpha-glucosidase MAL12 = Alpha-glucosidase MAL12 (Saccharomyces cerevisiae S288c, UniProt P53341); experiment: Inhibition of yeast alpha-glucosidase using p-NPG as substrate
[1] = molecular target: ATP-dependent translocase ABCB1 (Homo sapiens, UniProt P08183); experiment: Inhibition of p-glycoprotein in human adriamycin-resistant MCF7 cells assessed as increase of adriamycin accumulation at 20 uM after 1 hr by LC-MS/MS analysis relative to control; format: cell-based; settings: mcf7, 1 h
Chain of ATP-dependent translocase ABCB1 (P08183 whole entry): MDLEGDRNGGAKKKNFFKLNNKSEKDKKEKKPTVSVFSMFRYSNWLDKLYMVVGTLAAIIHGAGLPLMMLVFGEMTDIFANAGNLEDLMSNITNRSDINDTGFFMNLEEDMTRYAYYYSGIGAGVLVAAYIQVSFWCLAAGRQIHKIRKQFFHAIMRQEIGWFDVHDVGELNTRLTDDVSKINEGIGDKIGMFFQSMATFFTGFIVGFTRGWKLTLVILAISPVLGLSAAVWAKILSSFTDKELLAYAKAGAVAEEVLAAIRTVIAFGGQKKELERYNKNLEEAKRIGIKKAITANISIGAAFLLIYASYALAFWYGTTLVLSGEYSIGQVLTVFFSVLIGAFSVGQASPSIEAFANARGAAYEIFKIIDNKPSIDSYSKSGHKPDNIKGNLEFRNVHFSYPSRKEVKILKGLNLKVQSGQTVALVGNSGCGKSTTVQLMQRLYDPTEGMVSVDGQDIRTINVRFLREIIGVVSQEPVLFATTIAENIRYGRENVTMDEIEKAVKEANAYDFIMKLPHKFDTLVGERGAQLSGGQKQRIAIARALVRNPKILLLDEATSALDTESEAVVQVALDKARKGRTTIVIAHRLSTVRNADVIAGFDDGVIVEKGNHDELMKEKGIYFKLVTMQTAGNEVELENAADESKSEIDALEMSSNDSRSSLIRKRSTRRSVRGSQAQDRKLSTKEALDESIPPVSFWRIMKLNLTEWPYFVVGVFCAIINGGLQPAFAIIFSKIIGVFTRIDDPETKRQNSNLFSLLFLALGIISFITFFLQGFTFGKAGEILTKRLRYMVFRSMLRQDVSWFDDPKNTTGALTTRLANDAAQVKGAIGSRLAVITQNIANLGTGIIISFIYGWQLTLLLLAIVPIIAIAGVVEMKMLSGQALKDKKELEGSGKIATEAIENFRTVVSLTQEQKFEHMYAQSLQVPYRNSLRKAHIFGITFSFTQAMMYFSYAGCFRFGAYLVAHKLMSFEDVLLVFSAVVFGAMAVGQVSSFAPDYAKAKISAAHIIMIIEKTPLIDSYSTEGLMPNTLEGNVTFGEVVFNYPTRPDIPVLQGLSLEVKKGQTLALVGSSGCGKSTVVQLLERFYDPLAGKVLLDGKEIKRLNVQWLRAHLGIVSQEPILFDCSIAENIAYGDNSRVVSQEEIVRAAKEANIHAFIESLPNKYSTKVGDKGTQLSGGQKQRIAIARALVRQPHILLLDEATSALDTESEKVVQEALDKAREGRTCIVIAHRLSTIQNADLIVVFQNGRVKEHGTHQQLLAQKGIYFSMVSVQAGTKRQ

Chain of Alpha-glucosidase MAL12 (P53341 whole entry): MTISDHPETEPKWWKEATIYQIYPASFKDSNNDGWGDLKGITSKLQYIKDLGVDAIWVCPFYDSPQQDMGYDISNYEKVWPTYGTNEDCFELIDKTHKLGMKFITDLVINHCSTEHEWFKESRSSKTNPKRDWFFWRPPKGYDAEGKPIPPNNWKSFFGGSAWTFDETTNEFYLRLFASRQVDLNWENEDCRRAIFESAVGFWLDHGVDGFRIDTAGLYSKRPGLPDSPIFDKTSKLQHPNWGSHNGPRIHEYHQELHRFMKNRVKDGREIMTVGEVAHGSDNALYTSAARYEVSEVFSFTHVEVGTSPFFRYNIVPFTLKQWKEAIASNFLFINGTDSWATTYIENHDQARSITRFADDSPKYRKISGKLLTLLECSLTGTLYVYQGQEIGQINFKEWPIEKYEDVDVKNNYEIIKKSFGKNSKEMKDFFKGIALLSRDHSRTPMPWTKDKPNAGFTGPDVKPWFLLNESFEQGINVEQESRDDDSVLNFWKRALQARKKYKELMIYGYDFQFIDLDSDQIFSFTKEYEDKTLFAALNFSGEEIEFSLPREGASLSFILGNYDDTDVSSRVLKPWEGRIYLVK

| IC50 (Alpha-glucosidase MAL12) | Ratio [1] | SMILES |
| --- | --- | --- |
| 81.8 µM | – | CC1(C)C(=O)CC[C@]2(C)C3=C(C(=O)C[C@@H]12)[C@]1(C)C(=O)C[C@H]([C@]2(C)CCC(=O)O2)[C@@]1(C)CC3=O |
| 119 µM | 3 | C/C(=C\CC[C@@H](C)[C@H]1CC[C@@]2(C)C3=C([C@@H](O)C[C@]12C)[C@@]1(C)CCC(=O)C(C)(C)[C@@H]1CC3=O)C(=O)O |
| – | 3 | COC(=O)CC[C@@H](C)[C@H]1CC(=O)[C@@]2(C)C3=C(C(=O)C[C@]12C)[C@@]1(C)CCC(=O)C(C)(C)[C@@H]1CC3=O [METHYL LUCIDENATE F] |
| 145 µM | – | C[C@H](C(=O)O)[C@H]1CC(=O)[C@@]2(C)C3=C(C(=O)C[C@]12C)[C@@]1(C)CCC(=O)C(C)(C)[C@@H]1CC3=O |
| 91.3 µM | 3 | CC1(C)[C@@H](O)CC[C@]2(C)C3=C([C@@H](O)C[C@@H]12)[C@]1(C)C(=O)C[C@H]([C@]2(C)CCC(=O)O2)[C@@]1(C)C(=O)C3=O |
| – | 3 | COc1ccc(CCN(C)CCCC(C#N)(c2ccc(OC)c(OC)c2)C(C)C)cc1OC (stereo not given) |
| – | 3 | CC1(C)C(=O)CC[C@]2(C)C3=C([C@@H](O)C[C@@H]12)[C@]1(C)C(=O)C[C@H]([C@]2(C)CCC(=O)O2)[C@@]1(C)[C@@H](O)C3=O |

| SMILES | IC50 (Alpha-glucosidase MAL12) | Ratio [1] |
| --- | --- | --- |
| CC1(C)[C@@H](O)CC[C@]2(C)C3=C([C@@H](O)C[C@@H]12)[C@]1(C)C(=O)C[C@H]([C@]2(C)CCC(=O)O2)[C@@]1(C)[C@H](O)C3=O | 41.7 µM | – |
